Molecular target: T1, hvYvoF (YvoF from Haloferax volcanii) (Haloferax volcanii, UniProt D4GZM3)
T1 construct: full length, C-terminal His6 tag, pTA1228 vector, NdeI/XhoI; homologous expression in H. volcanii H1424, IMAC; printed cloning primers encode N-terminus MTDDDAAP and C-terminus DETDGA before LE of the XhoI site
Assay: […]-GGG acetylation, TLC and autoradiography
Type: biochemical
Conditions: acetyl-CoA 0.25 mM, MgCl2 10 mM, 1300 mM NaCl, 0.2% Tween80, pH 8.0, 40 °C; labelled compound

T1 sequence (D4GZM3 entry or part of it): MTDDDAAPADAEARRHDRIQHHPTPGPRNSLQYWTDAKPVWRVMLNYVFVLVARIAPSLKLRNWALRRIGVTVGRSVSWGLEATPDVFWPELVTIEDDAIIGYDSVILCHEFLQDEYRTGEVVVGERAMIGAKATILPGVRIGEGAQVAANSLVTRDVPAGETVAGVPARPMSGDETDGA

With `CC(C)=CCC/C(C)=C/CC/C(C)=C/CC/C(C)=C/COC[C@H](O)CO` [GGG, geranylgeranylglycerol] the “14C-GGG acetylation, TLC and autoradiography” value was “GGG was gradually diacetylated (to Ac2‐GGG) by hvYvoF with increasing incubation time”.

From article PMC9179154, “Identification of acetylated diether lipids in halophilic Archaea” (MicrobiologyOpen, 2022)
